In paper PMC8999917, “Structure–Activity Relationship of Synthetic Ginkgolic Acid Analogs for Treating Type 2 Diabetes by PTPN9 Inhibition” (International Journal of Molecular Sciences, 2022):

How the values were obtained:
C2C12 myotubes = experiment: 2-NBDG glucose uptake assay in C2C12 myotubes; format: cell-based, mouse; conditions: 10 µM, plate reader fluorescence
Experimental: PTPN9 inhibitors have been reported to increase glucose uptake. To clarify the antidiabetic effects of GA analogs, a 2-NBDG (a fluorescent glucose probe) uptake assay was performed using differentiated 3T3-L1 adipocytes and C2C12 myotubes. After 16 h of starvation, differentiated 3T3-L1 adipocytes were incubated with compounds 1e and 1f for another 1 h. The cells were subsequently incubated with 2-NBDG for 30 min and washed with PBS before quantifying the fluorescence of 2-NBDG taken up by the cells. The 2-NBDG uptake-increasing effects of GA and its analogs in 3T3-L1 cells were monitored via confocal microscopy. The blank group was set in the absence of 2-NBDG but was treated with DMSO to determine the basal fluorescence levels in 3T3-L1 adipocytes (Figure 4A, Basal); in the negative control group, 3T3-L1 adipocytes were treated with 2-NBDG and DMSO for the evaluation of basal glucose uptake levels (Figure 4A, DMSO). […] Furthermore, to quantify 2-NBDG uptake, fluorescence intensity (Ex/Em = 485/535 nm) was measured using a plate reader. […] After incubation, the cells were washed with pre-cold PBS, and the fluorescence intensity was measured using a fluorescence microplate reader (Victor^TM X4, PerkinElmer, Waltham, MA, USA) (Ex/Em = 485/535 nm). […]

[1] = system: Akt phosphorylation in PA-induced insulin-resistant C2C12 cells; experiment: Palmitic acid-induced insulin resistance in C2C12 myotubes (p-Akt); format: cell-based, mouse; conditions: PA (250 µM, 16 h)-treated C2C12, 5 μM compound for 30 min with 100 nM insulin
Experimental: Since insulin plays an important role in regulating glucose metabolism through the redistribution of GLUT4 from intracellular vesicles to the cell surface, it is important to describe the interaction between 1e and insulin in the Akt pathway. […] Next, we evaluated the protective effects of 1e against PA-induced insulin resistance in C2C12 myotubes. To generate an insulin resistance model, C2C12 myotubes were treated with 250 µM PA in a serum-free medium for 16 h. Akt phosphorylation levels in PA-treated C2C12 cells decreased by 50% compared to levels in normal C2C12 cells (Figure 6C). Furthermore, in the presence of insulin and GA, Akt phosphorylation levels decreased only by 30% compared to levels in normal cells. […] In addition, the GA analogs induced no cytotoxic effects in C2C12 muscle cells (data not shown). […] The expression levels of glucose uptake-related proteins were determined via Western blotting, as previously described. In brief, differentiated 3T3-L1 cells were plated in six-well plates at a 1.5 × 10^4 cells/well density in a final volume of 2 mL. […] Secondary antibodies were added to the membranes at a concentration of 1:2000 for 1 h at room temperature, and immunoreactive bands were detected via ECL (GE Healthcare Korea Co., Ltd., Incheon, Korea). […]

Which results are given for CCCCCCCCCCCCCOc1cccc(O)c1C(=O)O [Compound 1e]?
2-NBDG uptake increase compared to the DMSO control (C2C12 myotubes): ~1.4 fold; Akt phosphorylation in PA-induced insulin-resistant C2C12 cells [1]: restoring it to levels similar to those in the non-insulin-resistant group
